Test results: patent US20240188566A1, “Biocidal Composition and Method” (ARXADA, LLC, priority 2021, published 2024)
Marks after values point to notes of the source that are not given here.

What was measured:
Assay type in all cases: cell-based
[1] = tested on: Pseudomonas aeruginosa, Escherichia coli, Enterobacter cloacae, Acinetobacter calcoaceticus; experiment: In-can challenge test, modified ASTM D2574-97 (Table 1)
Procedure: (§1) Various formulations were made in accordance with the present disclosure and tested for performance. In one challenge test, the efficacy of dicyandiamide as an adjuvant for BIT was evaluated using modified ASTM D2574-97 “Standard Test Method for Resistance of Emulsion Paints in the Container to Attack by Microorganisms” with higher inoculation volumes and frequency. A standard consortium of four (4) bacterial populations: Pseudomonas aeruginosa, Escherichia coli, Enterobacter cloacae, Acinetobacter calcoaceticus was used to inoculate three (3) different samples at ten percent (10%), five percent (5%), or two and a half percent (2.5%) of the sample size. At twenty-four (24) hours and seventy-two (72) hours after each inoculation, a portion of each sample was streaked on tryptic soy agar. A dilution plate count was performed at the last seventy-two (72) hour time point.
(§2) Example data provided in Tables 1, 2 and 3 should be understood as indicating the degree of microbial growth observed for a given data point unless otherwise indicated. In particular, each plate is ranked from 0 through 5c (i.e., one of 0, 1, 2, 3, 4, 5, or 5c) according to the degree of observed microbial growth, where: a “0” ranking indicates no growth; a “1” ranking indicates one (1) through five (5) observed colony forming unit (cfu), i.e., the plate was very lightly contaminated; a “2” ranking indicates six (6) through fifteen (15) cfu, i.e., the plate was lightly contaminated; a “3” ranking indicates sixteen (16) through thirty (30) cfu, i.e., the plate was moderately contaminated; a “4” ranking indicates thirty-one (31) through forty-five (45) cfu, i.e., the plate was heavily contaminated; a “5” ranking indicates greater than (45) cfu, i.e., the plate was severely contaminated; and a “5c” ranking indicates confluent growth, i.e., the plate was very severely contaminated. Thus, for instance, Table 1, Challenge 1 at 24 h for BIT 50 ppm has a value of 5 indicating greater than forty-five (45) cfu were observed. As another example for illustration, Table 1, Challenge 1 at 24 h for dicyandiamide 5,000 ppm+BIT 50 ppm has a value of 1 indicating one (1) through five (5) cfu was observed.

[2] = tested on: Pseudomonas aeruginosa, Escherichia coli, Enterobacter cloacae, Acinetobacter calcoaceticus; experiment: Repeat in-can challenge test, same conditions (Table 2); conditions: Dicyandiamide 5,000 ppm
Procedure: as §1, §2

microbial growth = experiment: In-can challenge test of dicyandiamide as adjuvant for MIT (Table 3); conditions: for degree of microbial growth (plate ranking) / passing result of challenge test: Dicy 0
From the text: However, using a combination of MIT and dicyandiamide can allow for effective microbial control at MIT concentrations as low as 20 ppm.
as §2

N#CN=C(N)N [Dicyandiamide, 2-cyanoguanidine]
degree of microbial growth (plate ranking) ([1]; Dicyandiamide 5,000 ppm, Challenge 1 (10%), 24 h): 5c
degree of microbial growth (plate ranking) ([1]; Dicyandiamide 5,000 ppm, Challenge 1 (10%), 72 h): 5c
degree of microbial growth (plate ranking) ([1]; Dicyandiamide 5,000 ppm, Challenge 2 (5%), 72 h): 5c
degree of microbial growth (plate ranking) ([1]; Dicyandiamide 5,000 ppm, Challenge 3 (2.5%), 24 h): 5c
dilution plate count ([1]; Dicyandiamide 5,000 ppm, Challenge 3 (2.5%), 72 h): 8.0 × 10^6
degree of microbial growth (plate ranking) ([1]; Dicyandiamide 10,000 ppm, Challenge 1 (10%), 24 h): 5c
degree of microbial growth (plate ranking) ([1]; Dicyandiamide 10,000 ppm, Challenge 1 (10%), 72 h): 1 (a “1” ranking indicates one (1) through five (5) observed colony forming unit (cfu), i.e., the plate was very lightly contaminated)
degree of microbial growth (plate ranking) ([1]; Dicyandiamide 10,000 ppm, Challenge 2 (5%), 72 h): 5 (a “5” ranking indicates greater than (45) cfu, i.e., the plate was severely contaminated)
degree of microbial growth (plate ranking) ([1]; Dicyandiamide 10,000 ppm, Challenge 3 (2.5%), 24 h): 5 (a “5” ranking indicates greater than (45) cfu, i.e., the plate was severely contaminated)
dilution plate count ([1]; Dicyandiamide 10,000 ppm, Challenge 3 (2.5%), 72 h): 4.2 × 10^6
efficacy of dicyandiamide alone compared to the blank ([1]; Table 1, not in combination with BIT): no significant difference compared to the blank
degree of microbial growth (plate ranking) ([2]; Challenge 1 (10%), 24 h): 5c
degree of microbial growth (plate ranking) ([2]; Challenge 1 (10%), 72 h): 5c
degree of microbial growth (plate ranking) ([2]; Challenge 2 (5%), 72 h): 5c
degree of microbial growth (plate ranking) ([2]; Challenge 3 (2.5%), 24 h): 5c
dilution plate count ([2]; Challenge 3 (2.5%), 72 h): 2.4 × 10^7

Cn1sccc1=O [MIT − 50, 2-methyl-4-isothiazolin-3-one]
degree of microbial growth (plate ranking) (microbial growth; MIT 15 ppm as active (MIT-50 30 ppm), 1st challenge, 24): 5 (a “5” ranking indicates greater than (45) cfu, i.e., the plate was severely contaminated)
degree of microbial growth (plate ranking) (microbial growth; MIT 15 ppm as active (MIT-50 30 ppm), 1st challenge, 72): 5 (a “5” ranking indicates greater than (45) cfu, i.e., the plate was severely contaminated)
degree of microbial growth (plate ranking) (microbial growth; MIT 15 ppm as active (MIT-50 30 ppm), 2nd challenge, 72): 5 (a “5” ranking indicates greater than (45) cfu, i.e., the plate was severely contaminated)
degree of microbial growth (plate ranking) (microbial growth; MIT 15 ppm as active (MIT-50 30 ppm), 3rd challenge, 24): 5 (a “5” ranking indicates greater than (45) cfu, i.e., the plate was severely contaminated)
degree of microbial growth (plate ranking) (microbial growth; MIT 15 ppm as active (MIT-50 30 ppm), 3rd challenge, 72): 5 (a “5” ranking indicates greater than (45) cfu, i.e., the plate was severely contaminated)
degree of microbial growth (plate ranking) (microbial growth; MIT 20 ppm as active (MIT-50 40 ppm), 1st challenge, 24): 5 (a “5” ranking indicates greater than (45) cfu, i.e., the plate was severely contaminated)
degree of microbial growth (plate ranking) (microbial growth; MIT 20 ppm as active (MIT-50 40 ppm), 1st challenge, 72): 5 (a “5” ranking indicates greater than (45) cfu, i.e., the plate was severely contaminated)
degree of microbial growth (plate ranking) (microbial growth; MIT 20 ppm as active (MIT-50 40 ppm), 2nd challenge, 72): 5 (a “5” ranking indicates greater than (45) cfu, i.e., the plate was severely contaminated)
degree of microbial growth (plate ranking) (microbial growth; MIT 20 ppm as active (MIT-50 40 ppm), 3rd challenge, 24): 5 (a “5” ranking indicates greater than (45) cfu, i.e., the plate was severely contaminated)
degree of microbial growth (plate ranking) (microbial growth; MIT 20 ppm as active (MIT-50 40 ppm), 3rd challenge, 72): 5 (a “5” ranking indicates greater than (45) cfu, i.e., the plate was severely contaminated)
degree of microbial growth (plate ranking) (microbial growth; MIT 25 ppm as active (MIT-50 50 ppm), 1st challenge, 24): 5 (a “5” ranking indicates greater than (45) cfu, i.e., the plate was severely contaminated)
degree of microbial growth (plate ranking) (microbial growth; MIT 25 ppm as active (MIT-50 50 ppm), 1st challenge, 72): 2 (a “2” ranking indicates six (6) through fifteen (15) cfu, i.e., the plate was lightly contaminated)
degree of microbial growth (plate ranking) (microbial growth; MIT 25 ppm as active (MIT-50 50 ppm), 2nd challenge, 72): 5 (a “5” ranking indicates greater than (45) cfu, i.e., the plate was severely contaminated)
degree of microbial growth (plate ranking) (microbial growth; MIT 25 ppm as active (MIT-50 50 ppm), 3rd challenge, 24): 5 (a “5” ranking indicates greater than (45) cfu, i.e., the plate was severely contaminated)
degree of microbial growth (plate ranking) (microbial growth; MIT 25 ppm as active (MIT-50 50 ppm), 3rd challenge, 72): 5 (a “5” ranking indicates greater than (45) cfu, i.e., the plate was severely contaminated)
passing result of challenge test (microbial growth; MIT 30 ppm as active (MIT-50 60 ppm)): MIT − 50 60 ppm (30)*
degree of microbial growth (plate ranking) (microbial growth; MIT 30 ppm as active (MIT-50 60 ppm), 1st challenge, 24): 5 (a “5” ranking indicates greater than (45) cfu, i.e., the plate was severely contaminated)
degree of microbial growth (plate ranking) (microbial growth; MIT 30 ppm as active (MIT-50 60 ppm), 1st challenge, 72): 0
degree of microbial growth (plate ranking) (microbial growth; MIT 30 ppm as active (MIT-50 60 ppm), 2nd challenge, 72): 5 (a “5” ranking indicates greater than (45) cfu, i.e., the plate was severely contaminated)
degree of microbial growth (plate ranking) (microbial growth; MIT 30 ppm as active (MIT-50 60 ppm), 3rd challenge, 24): 5 (a “5” ranking indicates greater than (45) cfu, i.e., the plate was severely contaminated)
degree of microbial growth (plate ranking) (microbial growth; MIT 30 ppm as active (MIT-50 60 ppm), 3rd challenge, 72): 0
passing result of challenge test (microbial growth; MIT 35 ppm as active (MIT-50 70 ppm)): MIT − 50 70 ppm (35)*
degree of microbial growth (plate ranking) (microbial growth; MIT 35 ppm as active (MIT-50 70 ppm), 1st challenge, 24): 5 (a “5” ranking indicates greater than (45) cfu, i.e., the plate was severely contaminated)
degree of microbial growth (plate ranking) (microbial growth; MIT 35 ppm as active (MIT-50 70 ppm), 1st challenge, 72): 0
degree of microbial growth (plate ranking) (microbial growth; MIT 35 ppm as active (MIT-50 70 ppm), 2nd challenge, 72): 0
degree of microbial growth (plate ranking) (microbial growth; MIT 35 ppm as active (MIT-50 70 ppm), 3rd challenge, 24): 5 (a “5” ranking indicates greater than (45) cfu, i.e., the plate was severely contaminated)
degree of microbial growth (plate ranking) (microbial growth; MIT 35 ppm as active (MIT-50 70 ppm), 3rd challenge, 72): 0
MIT concentration giving passing results (microbial growth; MIT alone, no guanidine enhancer): ≥ 30 ppm
